Test results reported in patent US10596160B2, “Compositions, methods and uses for the treatment of diabetes and related conditions by controlling blood glucose level” (PHARNEXT, priority 2012, dated 2020).
Entries after “also recorded” stand apart in the source; their conditions may differ.

Columns and labels:
[1] = test system: TNFα-induced insulin resistant 3T3-L1 differentiated adipocytes; assay: Glucose uptake in TNFα-induced insulin resistant 3T3-L1 differentiated adipocytes; format: cell-based; conditions: for enhancement of glucose uptake, combination with metformin: combined or alone at the same concentrations; for enhancement of glucose uptake, combination with metformin / enhancement of glucose uptake, combination experiment: vs TNFα cells; for enhancement of glucose uptake, combination experiment: Dunnett's test; for enhancement of glucose uptake: drug alone, vs non-treated insulin-resistant cells (TNFα)
Experimental: 3T3L1 fibroblasts were maintained in DMEM 4.5 g/L glucose supplemented with 5% calf serum donor, 5% newborn calf serum, 100 U/mL penicillin, and 100 μg/mL streptomycin at 37° C. under a 10% CO2 atmosphere. Cells were grown on 24-well plates at a density of 2560 cells/well in 0.5 mL of growth medium (DMEM 4.5 g/L glucose supplemented with 10% FCS, 100 U/mL penicillin, and 100 μg/mL streptomycin). […] Fresh media were replaced after two days.
Glucose uptake was measured by quantification of incorporated radiolabeled glucose, after an incubation step with 2-deoxy-D[1,2^3H] glucose for 5 min. Glucose uptake was arrested by two washing steps in ice-cold PBS 1×, then were solubilized in 0.1N NaOH for 30 min. Cell-associated radioactivity was then counted using a MicroBeta counter after adding 600 μL per well of scintillant (Optiphase SuperMix3).
In parallel, protein quantification was determined by a colorimetric assay derived from the Lowry method. Results are expressed in nmol of glucose incorporated/5 mn/mg of protein and in % of control or basal condition (100%).

[2] = test system: beta pancreatic INS-1 cells; assay: Prevention of beta cells apoptosis (ssDNA apoptosis detection kit); format: cell-based; design: concentration or dose not given beside the values; conditions: 1 h pre-incubation then 24 h in apoptotic conditions, drugs tested alone
Experimental: The beta pancreatic INS-1 cells have been selected for this study. The cells are cultured in complete medium, RPMI 1640 10 mM glucose supplemented with 1 mM sodium pyruvate, 50 μM 2-mercaptoethanol, 2 mM glutamine, 10 mM HEPES, 100 IU/mL penicillin, 100 μg/mL streptomycin and 10% heat-inactivated fetal calf serum (FCS), as described by Asfari et al. (23). INS-1 cells are plated (4.5×10^4 cells/well) in 96-well poly-ornithine coated plates and cultured at 37° C. in a humidified atmosphere of 95% air/5% CO2. The day after, cells are pre-incubated with the tested molecules for 1 h. Then, after a medium change, cells are cultured for 24 h in a medium containing the tested molecules and 30 mM glucose, 0.05 mM myristic acid, 25 ng/mL INF, 25 ng/mL TNF and 5 ng/mL IL.
The efficacy of compounds to prevent apoptosis is then evaluated by the highly specific apoptosis detection kit from Chemicon (Ref. APT225). This procedure is based on the detection of single-stranded DNA (ssDNA) which is a specific marker of apoptotic cells (24).
Results are expressed in optical density (OD) arbitrary unit and % of reduction of the apoptosis induced by apoptotic condition. Following a Dunnett t-test, all compounds showing a significant decrease in % of apoptotic cells compared to apoptotic control conditions are considered active.

hepatocytes = assay: Glucose production by hepatic cells; format: cell-based, rat; conditions: 10 μM
Experimental: Hepatocytes are isolated from 24 h-fasted male Wistar rats (200-250 g body weight) by ex situ liver perfusion in the presence of collagenase. Cell viability is validated by a trypan blue exclusion test. […] After plating, the medium is removed and cells are cultured for 16 h in RPMI medium without glucose (supplemented with the tested drugs for long-term evaluation). The following day, hepatic glucose production is assessed in Krebs-Ringer Bicarbonate HEPES buffer (KRBH; pH 7.4) in the presence of the neoglucogenic substrates (lactate 10 mM and pyruvate 1 mM) and the tested molecules for 4 h (short-term).
Supernatants are collected and glucose concentrations are determined using a glucose oxidase kit (Instrumentation Laboratory 0018250840). In parallel, protein quantification is performed using the colorimetric Lowry method.
Results are expressed in nmol glucose/mg protein and % of control condition (KLP: KRBH containing lactate and pyruvate).

[3] = test system: beta pancreatic INS-1 cells; assay: Insulin secretion in response to glucose stimulation; format: cell-based, rat
Experimental: The cells are cultured in complete medium, RPMI 1640 10 mM glucose supplemented with 1 mM sodium pyruvate, 50 μM 2-mercaptoethanol, 2 mM glutamine, 10 mM HEPES, 100 IU/mL penicillin, 100 μg/mL streptomycin and 10% heat-inactivated fetal calf serum (FCS), as described by Asfari et al. (23). […] After 3 days of culture at 37° C. in a humidified atmosphere of 95% air/5% CO2, the medium is removed and cells are cultured for 16 h in a medium containing 5 mM glucose, 1% FCS (and the tested drugs for long-term evaluation).
The cells are washed again with KRBH and incubated for 1 h in KRBH 0.1% BSA containing 3.5 mM glucose and the tested molecules.
Standards, samples and controls are added to the appropriate wells with a horseradish peroxidase enzyme-labeled monoclonal antibody (conjugate). After incubation, the microplates are washed to remove unbound conjugate and a TMB substrate solution is added to react with the bound conjugate. Finally, after addition of a stop solution, the optical density is measured at 450 nm using a reference wavelength of 620 nm. The intensity of the yellow color is directly proportional to the amount of insulin within the samples.

[4] = test system: differentiated 3T3-L1 adipocyte cells; assay: Glucose uptake in 3T3-L1 adipocyte cells; format: cell-based; conditions: 3T3-L1 cells
Experimental: 3T3-L1 preadipocyte cells were cultured in DMEM containing 1% penicillin-streptomycin (PS) and 10% bovine calf serum at 37° C. in a 5% CO2 atmosphere. […] Differentiation, as measured by the expression of adipogenic markers and the appearance of lipid droplets, usually reaches completion between days 4 and 8. Glucose uptake activity was analyzed by measuring the uptake of radiolabeled glucose. Differentiated 3T3-L1 adipocytes grown in 12-well plates were washed twice with serum-free DMEM and incubated for 2 h at 37° C. with 1 mL DMEM containing 0.1% BSA. […] Next, cells were incubated with or without drugs for different durations in order to evaluate their short-term and long-term effects. To evaluate their short-term effect, cells were incubated with drugs of the invention for 4 hours at 37° C. To evaluate the long-term effect of drugs of the invention, the day prior to the test, cells were pre-incubated with or without drugs for 16 h. The day after, prior to the test, cells were washed and incubated in the presence of the tested molecules for 4 h more. […] After 20 min, glucose uptake was terminated by washing the cells three times with cold PBS. The cells were lysed through incubation for 20 min at 37° C. with 0.7 mL of Triton X-100. Level of radioactivity in the cell lysates was determined using a scintillation counter. Protein quantification was performed by a colorimetric assay derived from the Lowry method.

[5] = test system: H-2 Kb mouse muscle cells; assay: Glucose uptake in mouse muscle cells; format: cell-based; conditions: H-2 Kb cells, vs non-treated cells
Experimental: For differentiation in […], cells are switched to non-permissive culture conditions (37° C. in a humidified atmosphere of 95% air/5% CO2; DMEM 5.5 mM D-glucose supplemented with 2% FCS, 10% horse serum, 2% glutamine, 1% chicken embryo, 100 U/mL penicillin, and 100 μg/mL streptomycin).
For long-term effect evaluation, the day before glucose uptake assay, cells are incubated in DMEM 5.5 mM D-glucose supplemented with 10% horse serum, 2% SVF, 1% chicken embryo, and 2% glutamine in the presence of the tested molecules for 16 h. […]
For short-term effect evaluation, 4 hours prior to the glucose test, cells are washed and incubated in a serum-free medium (DMEM) containing 5.5 mM D-glucose and the tested molecules. Then glucose uptake is measured by incubation of the cells for 5-10 min with radiolabeled 2-deoxy-D-[1,2^3H] glucose in Krebs-Ringer HEPES buffer (KRBH; pH 7.4), 0.1% Bovine Serum Albumin (BSA), and fraction V (Sigma, A-4503). […] Cell-associated radioactivity is then counted and protein quantification is determined using the colorimetric Lowry method. Glucose uptake is estimated by measuring the radioactivity incorporated to the cells by a MicroBeta counter after adding 600 μL per well of scintillant (Optiphase SuperMix3).
Protein quantification is performed by a colorimetric assay derived from the Lowry method. […]

[6] = fenspiride 3.3 nM and metformin 100 μM
[7] = drugs combined at a dose as low as 10 nM, or used individually
[8] = drugs combined at a dose as low as 3.3 nM, or used individually

**Q.** How did the “enhancement of glucose uptake, combination with metformin” value [1, 6] turn out when `CN(C)C(=N)N=C(N)N` [metformin] was run?
**A.** does not lead to any significant improvement; also recorded: No significant effect

**Q.** What about the “enhancement of glucose uptake, combination with metformin” value ([1]; ifenprodil 3.3 nM and metformin 100 μM) of the same molecule?
**A.** does not lead to any significant improvement; also recorded: No significant effect

**Q.** With `CCN(CC)C(=O)N1CCN(C)CC1` [diethylcarbamazine] as the molecule, how does the “Percentage of apoptosis reduction” value [2] read?
**A.** 44%

**Q.** For `CN1CCCC(n2nc(Cc3ccc(Cl)cc3)c3ccccc3c2=O)CC1` (stereo not shown) [azelastine], which “Percentage of apoptosis reduction” value [2] is on record?
**A.** 81%

**Q.** What about the “reduction of glucose production” value (hepatocytes; long-term) of the same molecule?
**A.** −36%

**Q.** For `Nc1nc(N)c2nc(-c3ccccc3)c(N)nc2n1` [triamterene], which “Percentage of apoptosis reduction” value [2] is on record?
**A.** 64%

**Q.** What about the “enhancement of insulin secretion” value ([3]; short-term pre-treatment, 10 μM) of the same molecule?
**A.** +37%

**Q.** And the “enhancement of glucose uptake, combination experiment” value [1, 7]?
**A.** No significant effect

**Q.** For `CN(C)CC[C@@H](c1ccc(Br)cc1)c1ccccn1` [dexbrompheniramine], which “Percentage of apoptosis reduction” value [2] is on record?
**A.** 76%

**Q.** Which “enhancement of glucose uptake” value ([4]; short-term, 10 nM) does the source give for `c1cnc(N2CCN(Cc3ccc4c(c3)OCO4)CC2)nc1` [piribedil] here?
**A.** +68%

**Q.** Which “Percentage of apoptosis reduction” value [2] does the source give for `C[C@@H](NCCCc1cccc(C(F)(F)F)c1)c1cccc2ccccc12` [cinacalcet] here?
**A.** 167%

**Q.** What about the “enhancement of insulin secretion” value ([3]; long-term pre-treatment, 1 μM) of the same molecule?
**A.** +55%

**Q.** For `Cc1cccc(C)c1OCC(C)N` (stereo not shown) [mexiletine], which “Percentage of apoptosis reduction” value [2] is on record?
**A.** 74%

**Q.** With `O=C[C@@H](O)[C@@H](O)[C@H](O)[C@H](O)CO` [D-mannose] as the molecule, how does the “Percentage of apoptosis reduction” value [2] read?
**A.** 129%

**Q.** And the “reduction of glucose production” value (hepatocytes; short-term)?
**A.** −22%

**Q.** What does the source list for `O=C1NCC2(CCN(CCc3ccccc3)CC2)O1` [fenspiride]?
**A.** enhancement of glucose uptake ([1]; 0.37 nM): improvement; enhancement of glucose uptake ([1]; 1 nM): +130%; enhancement of glucose uptake ([1]; 3.3 nM): improvement; enhancement of glucose uptake, combination experiment [1, 8]: No significant effect; enhancement of glucose uptake, combination experiment [1, 7]: No significant effect; enhancement of glucose uptake, combination with metformin [1, 6]: does not lead to any significant improvement; also recorded: No significant effect

**Q.** Which “Percentage of apoptosis reduction” value [2] does the source give for `C[C@@H]1CC(=O)NN=C1c1ccc(NN=C(C#N)C#N)cc1` [levosimendan] here?
**A.** 118%

**Q.** For `CCN(CC)CCOCCOC(=O)C1(c2ccccc2)CCCC1` [carbetapentane], which “enhancement of glucose uptake” value ([4]; short-term, 0.1 μM (100 nM)) is on record?
**A.** +58%

**Q.** And the “Percentage of apoptosis reduction” value [2]?
**A.** 103%

**Q.** What does the source list for `Cc1cccc(Nc2ccncc2S(=O)(=O)NC(=O)NC(C)C)c1` [torasemide]?
**A.** Percentage of apoptosis reduction [2]: 67%; enhancement of glucose uptake ([1]; 0.37 nM): +121%; enhancement of glucose uptake ([1]; 1 nM): +123%; enhancement of glucose uptake ([1]; 3.3 nM): +129%

**Q.** With `CO[C@]12C[C@@H](COC(=O)c3cncc(Br)c3)CN(C)[C@@H]1Cc1cn(C)c3cccc2c13` [nicergoline] as the molecule, how does the “Percentage of apoptosis reduction” value [2] read?
**A.** 112%

**Q.** What about the “enhancement of glucose uptake” value ([5]; long-term, 10 μM) of the same molecule?
**A.** +28%

**Q.** `NCC(CC(=O)O)c1ccc(Cl)cc1` (racemic) [baclofen] was tested. Which “Percentage of apoptosis reduction” value [2] did it give?
**A.** 84%

**Q.** What does the source list for `Cc1c(Cl)cccc1Nc1ccccc1C(=O)O` [tolfenamic acid]?
**A.** enhancement of glucose uptake ([1]; 10 nM): +127%; enhancement of glucose uptake ([1]; 100 nM): improvement; enhancement of glucose uptake ([1]; 1 μM): improvement; enhancement of glucose uptake, combination experiment [1, 8]: No significant effect; enhancement of glucose uptake, combination experiment [1, 7]: No significant effect

**Q.** Which “Percentage of apoptosis reduction” value [2] does the source give for `Cc1ccc(C(=O)C(C)CN2CCCCC2)cc1` (stereo not shown) [tolperisone] here?
**A.** 78%

**Q.** Which results are given for `C=CCNc1nc(NCC=C)nc(N2CCN(C(c3ccc(F)cc3)c3ccc(F)cc3)CC2)n1` [almitrine]?
**A.** enhancement of glucose uptake ([4]; long-term, 1 μM): +69%; Percentage of apoptosis reduction [2]: 103%; enhancement of glucose uptake ([5]; short-term, 1 μM): +80%
